“Also recorded” adds a separate entry of the source. Marks after values point to notes of the source that are not given here. Ends that are not written are not given here.

The target of one test is T1, LC3B (Homo sapiens, UniProt Q9GZQ8).
T1 construct: modified Ub-leader (ubiquitin fusion leader) (N); made in house; host or cells: E. coli NEB T7 Express
The experiment in a line: ITC titration of PLEKHM1-LIR peptides into LC3B. The format is binding. The following applies: for ΔH: VP-ITC, 50 mM Na2HPO4, 100 mM NaCl. Here is the method:
(§1) The genes for the truncated LC3A^2–121, LC3C^8–125, GABARAP^2–117 and GABARAP‐L1^2–117 proteins were cloned into pET30ΔSE vector between the BamHI and XhoI sites using previously established protocols 38. The chimeric constructs of the PLEKHM1‐LIR attached to the LC3A, GABARAP and GABARAP‐L1 proteins were prepared by inserting the oligonucleotide sequence corresponding to the PLEKHM1‐LIR peptide (P^629[…]^638) and glycine–serine linker into the BamHI site of the pET30ΔSE vector, placing the PLEKHM1‐LIR at the N‐terminal of the mature chimeric protein (similar to 31, 38). For the expression of human LC3 and GABARAP proteins for ITC and NMR experiments, plasmids with appropriate modified Ub‐leaders in pET vectors were used 39. Gene, encoding PLEKHM1‐LIR peptide, was ordered as synthetic oligonucleotides (Eurofins Genomics GmbH) and cloned into the pET39_Ub63_ vector 39 by NcoI–BamHI restriction sites. After TEV cleavage, the resulting peptide has the amino acid sequence GAMG‐P^629[…]^642, where the first four residues (GAMG) are the cloning artefact.
(§2) The chimeric constructs were expressed as a His‐tag fusion protein in E. coli BL21(DE3) cells. The cells were induced with 0.3 mM IPTG at OD600 0.6 for 16 h at 26°C. The cell pellets were lysed using mechanical sonication in lysis buffer (20 mM Tris–HCl pH 9.0, 100 mM NaCl, 10 mM imidazole, supplemented with 0.1% Triton X‐100). The proteins were purified using Ni‐NTA beads (GE Healthcare) and the His‐tag was cleaved using thrombin (Invitrogen) at room temperature for 16 h. The last step was gel filtration chromatography using a Superdex S200/300 GL column (GE Healthcare). The proteins were concentrated using spin concentrators (Vivaspin). For ITC and NMR studies, the non‐labelled and stable isotopes labelled LC3 and GABARAP proteins were obtained based on the protocols described elsewhere 30, 39. Here, E. coli NEB T7 Express culture transformed with corresponding plasmids were grown till OD600 nm = 1.0 and protein expression was induced with 0.2 mM IPTG. The cultures were incubated at 25°C for 8–12 h before cell harvesting. Isolation and purification procedures were similar to those reported in Ref. 22, 40. Before experiments, all proteins and peptides were equilibrated with a buffer containing 50 mM Na2HPO4, 100 mM NaCl at pH 7.0, and supplied with 5 mM protease inhibitor cocktail.
(§3) The protocol for preparation of non‐labelled and ^13C,^15N‐labelled PLEKHM1‐LIR peptide was slightly modified to achieve highest yield of the peptide. The 50 ml M9 culture was inoculated with NEB T7 cell transformed with pET39_Ub63‐PLEKHM1‐LIR plasmid and grown overnight at 37°. The collected cells were resuspended in 2 l of either LB or M9 media contained 1.5 g ^15N‐labelled NH4Cl and 3.0 g of ^13C‐labelled glucose. The cultures were grown at 37° till A(600 nm) = 0.9 and supplied with 1 mM of IPTG to induce Ub63‐PLEKHM1‐LIR overexpression (3 h at 37°). After that cells were harvested by centrifugation, re‐suspended in buffer contained 50 mM Tris–HCl pH = 7.9, 200 mM NaCl, 5% glycerol, 0.1 mg/ml DNase A and 4 mM protease inhibitor cocktail. After cell lysis by French press, debris was removed by centrifugation and clear supernatant was applied onto the column contained Ni‐NTA Sepharose equilibrated with the loading buffer (50 mM Tris–HCl pH = 7.9, 250 mM NaCl, 1% glycerol and 20 mM imidazole). Elution was performed with 400 mM imidazole in the same buffer. An aliquot of pure Ub63‐PLEKHM1‐LIR fractions was further purified by gel filtration on Superdex75 26 × 60 column for control ITC and analytical size exclusion chromatography experiments, remaining fusion protein was processed with the TEV‐protease and PLEKHM1‐LIR peptide was purified to 95% purity by reverse Ni‐NTA chromatography and followed gel filtration on Superdex75 26 × 60 column. Peak maximum of peptide was detected at […] (void volume 115 ml). Pure peptide was concentrated in Amicon concentrators with cut‐off of 3 kDa (> 95% retention). […]
On the technique in general: In ITC the heat of successive injections is recorded.

The next test deals with LC3 and GABARAP families. The note with it: cited from earlier work. The text has this:
However, despite the ever‐increasing number of LC3/GABARAP interaction partners identified and perhaps the over‐reliance on LC3B as the main marker of autophagosomes, there is now emerging distinct roles of each LC3 and GABARAP subfamily. For example, both LC3 and GABARAP families are essential for autophagy flux 29; however, LC3s were reported to be involved in phagophore extension and GABARAPs required for autophagosome closure 29. Moreover, GABARAP can activate ULK1 complex to initiate autophagy, irrespective of its conjugation status 28. Indeed, this is also reflected in C. elegans homolog ...

In another test the target is T2, GABARAP (Homo sapiens, UniProt O95166).
T2 construct: modified Ub-leader (ubiquitin fusion leader) (N); made in house; host or cells: E. coli NEB T7 Express
T2 sequence (O95166 whole entry, the tested form may be a part): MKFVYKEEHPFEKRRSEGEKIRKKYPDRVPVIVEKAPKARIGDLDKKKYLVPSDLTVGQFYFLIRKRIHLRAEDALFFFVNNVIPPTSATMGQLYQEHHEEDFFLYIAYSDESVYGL
Nature of the test: ITC titration of PLEKHM1-LIR peptides into GABARAP. The format is binding. The following applies: for ΔH: VP-ITC, one-site model, 0.4 mM peptide into 0.020 mM protein, 50 mM Na2HPO4, 100 mM NaCl. Here is the method: as §1, §2, §3

The test system of test [1] is 6xHis-tagged LC3B and 6xHis-tagged GABARAP. Nature of the test: Peptide array, preference GABARAP versus LC3B (absorbance ratio). Format: binding, human. The following applies: absorbance GABARAP/LC3B or LC3B/GABARAP, cut-off 1.5-fold, mean of n = 3, Figs 1A, EV1B and C. The text has this:
A high number of autophagy receptors or adaptor structures have been reported, yet the basis for their selective interaction with individual members of the ATG8 family is not well understood. We speculated whether the LIR motif alone is able to confer selectivity towards a mATG8 subfamily and whether we could derive a subfamily consensus motif from analysis of known mATG8 interaction partners. To address this question, we screened an array of peptides (presented in Fig EV1A and described in Materials and Methods) with the LIR sequences of 30 known and validated autophagy receptors and adaptors (Table 1) against all six human mATG8s for binding (Figs 1A and EV1B and C). In brief, biotinylated peptides were immobilized on streptavidin‐coated 96‐well plates and incubated with His6‐tagged mATG8 proteins. After washing steps, peptide‐bound mATG8 was detected in an ELISA reader using anti‐His antibodies directly conjugated to HRP (horse radish peroxidase; Fig EV1A).
Dashed red line depicts 1.5‐fold change cut‐off.
Due to the wide range of affinities of various LIR sequences towards the LC3/GABARAP proteins, we have normalized our results by dividing values for LC3B interaction by the corresponding value for interaction with GABARAP (Fig 1A, purple bars) and vice versa (Fig 1A, blue bars) to highlight the potential subfamily selectivity of each LIR sequence tested. We classified ratios greater than 1.5‐fold as an indication of a preferential interaction towards that particular LC3 or GABARAP family member. […] Using this information, we generated a sequence plot (Fig 1B) to ascertain whether there were any common sequence features of the GABARAP‐specific interaction proteins. In addition to the 12 sequences identified in this experiment as preferential GABARAP subfamily interactors, we also included known GABARAP interactors that were not included in our screen (ALFY and KBTBD7). […] The previously identified PLEKHM1‐LIR 19 has a high degree of similarity to this sequence. […] However, it is unclear whether this is the case in vivo.
Biotinylated peptides (JPT, Germany) were immobilized on streptavidin‐coated 96‐well plates (#436014; Thermo Scientific) in 100 μl PBS containing 0.1% Tween‐20 (PT) and 1% BSA (PTB) overnight on a shaker at 8°C. After three washing steps with 200 μl PT, 100 μl of 1 μM HIS6‐tagged mATG fusion proteins isolated from E. coli in PTB was incubated with the immobilized peptides for 1 h at 8°C. After three washing steps with 200 μl PT, HIS6‐ATG8 bound to peptides was detected after 1‐h incubation with anti‐HIS‐HRP antibody (JP‐A00612; Genscript; 1:5,000 in 100 μl PTB) with the help of TMB substrate Reagent Set (BD OptEIA; 75 μl). The reaction (blue coloration) was stopped by addition of 60 μl 1 M H3PO4. Samples were analysed on a Synergy H1 ELISA reader from BioTek at 450 nm.

For another test, the system named is 6xHis-tagged LC3B. The experiment in a line: Peptide array (ELISA), LC3B. The following applies: mean ± SEM n = 5, Fig 4B. Background: An ELISA detects its analyte on a solid surface through an enzyme-linked reagent.
[2] abbreviates: ITC, 25°C, one-site model, 0.4 mM peptide into 0.020 mM protein, pH 7.0.
Where [3] appears, read: weak interaction: N fixed to 1 upon fitting.

On LC3B (ITC, 25°C, pH 7.0, 0.4 mM peptide into 0.020 mM protein, one-site model), EDEWCILQY [WCIL] yielded a Kd of 300 nM.

As for SEDYIIILP [NBR1, LIR peptide 729–737], the subfamily specificity result in the test on LC3 and GABARAP families was “GABARAP‐L1‐specific receptor”.

Consider GAMGPQQEDEAVNVQYPD [PLEKHM1‐LIR W635A], for which the ΔH on LC3B (setting [2]) is -0.8 ± 0.1 kcal/mol. Moreover, on LC3B (ITC, 25°C, pH 7.0), the ΔG is -5.44 kcal/mol, the ΔS entry was “+15.4 cal mol^−1 K^−1” and the “−T × ΔS” value is -4.59 kcal/mol. Besides, the “N (number of binding sites)” value at LC3B (setting [3]) was 1 ^a. Further, on GABARAP (ITC, 25°C, pH 7.0), the ΔH was -1.1 ± 0.1 kcal/mol, the ΔG is -5.40 kcal/mol, the ΔS entry is given as “+14.4 cal mol^−1 K^−1” and the “−T × ΔS” value was -4.29 kcal/mol. Also, at GABARAP (setting [3]), the “N (number of binding sites)” value is 1 ^a.

For “DDSYEVLDL [FUNDC1, LIR peptide 152–160 (so in the source)]”, in test [1], the “preference GABARAP versus LC3B” value was “preferentially interacted with the LC3 group; also recorded: only LC3‐selective LIR; also recorded: only LC3B‐specific LIR”.

TDDFVMVPA [ULK1, LIR peptide 354–362]: the “preference GABARAP versus LC3B” value in test [1] is “clear specificity towards GABARAP versus LC3B”.

Take “GAMGPQQEDEWCILQYPD [PLEKHM1‐LIR VNV‐CIL]”: the ΔH on LC3B (setting [2]) is -7.9 ± 0.1 kcal/mol. Also, on LC3B (ITC, 25°C, pH 7.0), the KA was 3.03 ± 0.27 ×10^6 M^−1, the “N (number of binding sites)” value amounted to 1.06 ± 0.01, the ΔG is -8.84 kcal/mol and the ΔS result is reported as “+3.30 cal mol^−1 K^−1”. Besides, the “−T × ΔS” value on LC3B (ITC, 25°C, pH 7.0) was -0.98 kcal/mol. Further, at GABARAP (ITC, 25°C, pH 7.0), the ΔH is -9.2 ± 0.1 kcal/mol, the KA is 11.3 ± 0.38 ×10^6 M^−1, the “N (number of binding sites)” value amounted to 1.07 ± 0.01 and the ΔG is -9.62 kcal/mol. On GABARAP (ITC, 25°C, pH 7.0), the ΔS result is on record as “+1.49 cal mol^−1 K^−1” and the “−T × ΔS” value is -0.44 kcal/mol.

At LC3B (setting [2]), GAMGPQQEDEWVGVQYPD [PLEKHM1‐LIR N637G] yielded a ΔH of -1.4 ± 0.1 kcal/mol. In addition, on LC3B (ITC, 25°C, pH 7.0), the KA was 0.02 ± 0.01 ×10^6 M^−1, the ΔG is -5.87 kcal/mol, the ΔS result is “+15.0 cal mol^−1 K^−1” and the “−T × ΔS” value was -4.47 kcal/mol. The “N (number of binding sites)” value on LC3B (setting [3]) was 1 ^a. Moreover, on GABARAP (ITC, 25°C, pH 7.0), the ΔH was -6.7 ± 0.1 kcal/mol, the KA was 0.13 ± 0.01 ×10^6 M^−1, the “N (number of binding sites)” value came out at 1.17 ± 0.04 and the ΔG is -6.97 kcal/mol. On GABARAP (ITC, 25°C, pH 7.0), the ΔS entry is given as “+1.07 cal mol^−1 K^−1” and the “−T × ΔS” value was -0.32 kcal/mol.

As for DDFWVRVAP [KTBD6, LIR peptide 665–673], the “preference GABARAP versus LC3B” value in test [1] (listed as KBTBD6) is given as “strong preference for GABARAP versus LC3B”; in test [1] (listed as KBTDB6) it was “clear specificity towards GABARAP versus LC3B”.

In the case of TDDFVLVPH [ULK2, LIR peptide 350–358], in test [1], the “preference GABARAP versus LC3B” value is on record as “clear specificity towards GABARAP versus LC3B”.

As for EDEWCFLQY, in the test on 6xHis-tagged LC3B, the “interaction with LC3B, core motif combinations” value was “increased the interaction of PLEKHM1‐LIR with LC3B”.

For the sequence ESDWVAVRP [JMY, LIR peptide 10–18], in test [1], the “preference GABARAP versus LC3B” value is reported as “strong preference for GABARAP versus LC3B”.

On LC3B (setting [2]), GAMGPQQEDEWGNVQYPD [PLEKHM1‐LIR V636G] showed a ΔH of -1.7 ± 0.1 kcal/mol. For the same sequence, at LC3B (ITC, 25°C, pH 7.0), the ΔG is -5.42 kcal/mol, the ΔS entry is given as “+12.4 cal mol^−1 K^−1” and the “−T × ΔS” value is -3.70 kcal/mol. On LC3B (setting [3]), the “N (number of binding sites)” value is given as 1 ^a. Besides, at GABARAP (ITC, 25°C, pH 7.0), the ΔH is -7.5 ± 0.1 kcal/mol, the KA is on record as 0.02 ± 0.00 ×10^6 M^−1, the ΔG was -5.83 kcal/mol and the ΔS is −5.66 cal mol^−1 K^−1. In addition, the “−T × ΔS” value at GABARAP (ITC, 25°C, pH 7.0) is on record as “+1.69 kcal mol^−1”. The “N (number of binding sites)” value on GABARAP (setting [3]) was 1 ^a.

EDEWCVLQY: the “interaction with LC3B, core motif combinations” value in the test on 6xHis-tagged LC3B is listed as “increased the interaction of PLEKHM1‐LIR with LC3B”.

A word on the Kd: it is the concentration at which binding is half-saturated.

Values taken from PMC5538626, “Structural and functional analysis of the GABARAP interaction motif (GIM)” (EMBO Reports, 2017).
